Results published in PubChem BioAssay AID328 (DTP/NCI, 2004).
Inconclusive results and toxic doses are left out.

System: BDF1 mice, P388 leukemia ip, median survival T/C
Assay: NCI In Vivo Anticancer Drug Screen. Data for tumor model P388 Leukemia (intraperitoneal) in B6D2F1 (BDF1) mice
Conditions: endpoint: median survival time, higher = longer survival
How it was run: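 Transplantable tumour in mice; compound vs vehicle dosing; survival scored; ratio of treated to control reported.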

[1] = dose: 100.0 mg/kg/injection, schedule: Q04DX003 (ip), vehicle: saline with Tween-80
[2] = dose: 200.0 mg/kg/injection, schedule: Q04DX003 (ip), vehicle: saline with Tween-80
[3] = dose: 400.0 mg/kg/injection, schedule: Q04DX003 (ip), vehicle: saline with Tween-80
[4] = dose: 50.0 mg/kg/injection, schedule: Q01DX009 (ip), vehicle: saline with Tween-80
[5] = dose: 100.0 mg/kg/injection, schedule: Q01DX009 (ip), vehicle: saline with Tween-80
[6] = dose: 200.0 mg/kg/injection, schedule: Q01DX009 (ip), vehicle: saline with Tween-80
[7] = dose: 25.0 mg/kg/injection, schedule: Q01DX009 (ip), vehicle: saline with Tween-80

Question: How did the T/C [1] turn out when `Cc1ccc(NC(=O)Nc2ccccc2F)cc1NC(=O)Nc1ccccc1F` was run?
Answer: 104 % of control

Question: What about the T/C [2] of the same molecule?
Answer: 109 % of control

Question: What about the T/C [3] of the same molecule?
Answer: 109 % of control

Question: Which T/C (dose: 100.0 mg/kg/injection, schedule: Q04DX003 (ip), vehicle: saline sonified) does the source give for `CCCCCCCCCCCCCCCC(=O)NCCO` here?
Answer: 91 % of control

Question: For `N#CC(=Nc1cc(Cl)cc(Cl)c1)C1=C(O)c2ccccc2C1=O`, which T/C (dose: 50.0 mg/kg/injection, schedule: Q01DX005 (ip), vehicle: saline with Tween-80) is on record?
Answer: 101 % of control

Question: And the T/C (dose: 100.0 mg/kg/injection, schedule: Q01DX005 (ip), vehicle: saline with Tween-80)?
Answer: 111 % of control

Question: And the T/C (dose: 200.0 mg/kg/injection, schedule: Q01DX005 (ip), vehicle: saline with Tween-80)?
Answer: 101 % of control

Question: What does the source list for `COc1ccc(NC(=O)Oc2ccc(OC)cc2)cc1`?
Answer: T/C (dose: 100.0 mg/kg/injection, schedule: Q04DX003 (ip), vehicle: Klucel (hydroxypropylcellulose) (HPC)): 95 % of control; T/C (dose: 200.0 mg/kg/injection, schedule: Q04DX003 (ip), vehicle: Klucel (hydroxypropylcellulose) (HPC)): 100 % of control; T/C (dose: 400.0 mg/kg/injection, schedule: Q04DX003 (ip), vehicle: Klucel (hydroxypropylcellulose) (HPC)): 91 % of control

Question: `c1c2c(cc3c1OC1=C(CCCCCCCCCC1)C3)OC1=C(CCCCCCCCCC1)C2` was tested. Which T/C [4] did it give?
Answer: 102 % of control

Question: What about the T/C [5] of the same molecule?
Answer: 100 % of control

Question: And the T/C [6]?
Answer: 86 % of control

Question: Which results are given for `CN(C)C1C(=O)C(C(=O)NCN2CCOB(c3ccccc3)OCC2)=C(O)C2(O)C(O)=C3C(=O)C4C(O)=CC=CC4C(C)(O)C3CC12` (centres undefined)?
Answer: T/C (dose: 200.0 mg/kg/injection, schedule: Q04DX002 (ip), vehicle: saline with Tween-80): 93 % of control; T/C (dose: 400.0 mg/kg/injection, schedule: Q04DX002 (ip), vehicle: saline with Tween-80): 112 % of control

Question: How did the T/C (dose: 8.0 mg/kg/injection, schedule: Q01DX009 (ip), vehicle: Klucel (hydroxypropylcellulose) (HPC)) turn out when `Cc1c(C)c(CO)c(C)c(C)c1CO` was run?
Answer: 96 % of control

Question: And the T/C (dose: 12.0 mg/kg/injection, schedule: Q01DX009 (ip), vehicle: Klucel (hydroxypropylcellulose) (HPC))?
Answer: 89 % of control

Question: And the T/C (dose: 12.0 mg/kg/injection, schedule: Q04DX003 (ip), vehicle: Klucel (hydroxypropylcellulose) (HPC))?
Answer: 104 % of control

Question: And the T/C (dose: 18.0 mg/kg/injection, schedule: Q01DX009 (ip), vehicle: Klucel (hydroxypropylcellulose) (HPC))?
Answer: 96 % of control

Question: And the T/C (dose: 25.0 mg/kg/injection, schedule: Q04DX003 (ip), vehicle: Klucel (hydroxypropylcellulose) (HPC))?
Answer: 95 % of control

Question: And the T/C (dose: 50.0 mg/kg/injection, schedule: Q04DX003 (ip), vehicle: Klucel (hydroxypropylcellulose) (HPC))?
Answer: 104 % of control

Question: Which results are given for `Cc1c(N=Cc2ccccc2)c(=O)n(-c2ccccc2)n1C`?
Answer: T/C (dose: 100.0 mg/kg/injection, schedule: Q01DX009 (ip), vehicle: gum acacia): 110 % of control; T/C (dose: 100.0 mg/kg/injection, schedule: Q04DX003 (ip), vehicle: gum acacia): 88 % of control; T/C (dose: 200.0 mg/kg/injection, schedule: Q01DX009 (ip), vehicle: gum acacia): 103 % of control; T/C (dose: 200.0 mg/kg/injection, schedule: Q04DX003 (ip), vehicle: gum acacia): 100 % of control; T/C (dose: 400.0 mg/kg/injection, schedule: Q01DX009 (ip), vehicle: gum acacia): 92 % of control; T/C (dose: 400.0 mg/kg/injection, schedule: Q04DX003 (ip), vehicle: gum acacia): 92 % of control

Question: What does the source list for `COc1cc2ccnc(Cc3ccccc3)c2cc1OC`?
Answer: T/C [5]: 109 % of control; T/C [1]: 109 % of control; T/C [6]: 104 % of control; T/C [2]: 109 % of control; T/C [3]: 109 % of control

Question: Which results are given for `O=C(CC(NC(=O)OCc1ccccc1)c1nn[nH]n1)OCc1ccccc1` (centres undefined)?
Answer: T/C [1]: 100 % of control; T/C [2]: 95 % of control; T/C [3]: 95 % of control

Question: How did the T/C (dose: 6.25 mg/kg/injection, schedule: Q01DX009 (ip), vehicle: saline with Tween-80) turn out when `O=C(/C=C/c1ccccc1)NC(CO)Cc1ccccc1` (centres undefined) was run?
Answer: 90 % of control

Question: What about the T/C (dose: 12.5 mg/kg/injection, schedule: Q01DX009 (ip), vehicle: saline with Tween-80) of the same molecule?
Answer: 92 % of control

Question: And the T/C [7]?
Answer: 101 % of control

Question: And the T/C [5]?
Answer: 100 % of control

Question: And the T/C [6]?
Answer: 100 % of control

Question: With `CCCCCCCCCCCc1n(Cc2ccccc2)cc[n+]1C` as the molecule, how does the T/C (dose: 0.75 mg/kg/injection, schedule: Q01DX009 (ip), vehicle: saline) read?
Answer: 117 % of control

Question: And the T/C (dose: 1.5 mg/kg/injection, schedule: Q01DX009 (ip), vehicle: saline)?
Answer: 114 % of control

Question: What about the T/C (dose: 1.5 mg/kg/injection, schedule: Q04DX003 (ip), vehicle: saline) of the same molecule?
Answer: 100 % of control

Question: What about the T/C (dose: 3.0 mg/kg/injection, schedule: Q01DX009 (ip), vehicle: saline) of the same molecule?
Answer: 114 % of control

Question: What about the T/C (dose: 3.0 mg/kg/injection, schedule: Q04DX003 (ip), vehicle: saline) of the same molecule?
Answer: 115 % of control

Question: How did the T/C [5] turn out when `COC(OC)c1nc(SC)[nH]c(=O)c1C` was run?
Answer: 91 % of control

Question: And the T/C [1]?
Answer: 100 % of control

Question: What about the T/C [6] of the same molecule?
Answer: 95 % of control

Question: And the T/C [2]?
Answer: 100 % of control

Question: What about the T/C [3] of the same molecule?
Answer: 95 % of control

Question: How did the T/C (dose: 50.0 mg/kg/injection, schedule: Q01DX001 (ip), vehicle: Klucel (hydroxypropylcellulose) (HPC)) turn out when `O=C(CN1C(=O)c2ccccc2C1=O)c1ccc(C(F)(F)F)cc1` was run?
Answer: 96 % of control

Question: What about the T/C (dose: 100.0 mg/kg/injection, schedule: Q01DX001 (ip), vehicle: Klucel (hydroxypropylcellulose) (HPC)) of the same molecule?
Answer: 105 % of control

Question: What about the T/C (dose: 200.0 mg/kg/injection, schedule: Q01DX001 (ip), vehicle: Klucel (hydroxypropylcellulose) (HPC)) of the same molecule?
Answer: 88 % of control

Question: With `N=c1nc2n(cc1F)[C@@H]1O[C@H](CO)[C@@H](O)[C@@H]1O2` as the molecule, how does the T/C (dose: 64.0 mg/kg/injection, schedule: Q01DX005 (ip), vehicle: saline) read?
Answer: 153 % of control

Question: And the T/C (dose: 128.0 mg/kg/injection, schedule: Q01DX005 (ip), vehicle: saline)?
Answer: 171 % of control

Question: And the T/C (dose: 256.0 mg/kg/injection, schedule: Q01DX005 (ip), vehicle: saline)?
Answer: 209 % of control

Question: And the T/C (dose: 512.0 mg/kg/injection, schedule: Q01DX005 (ip), vehicle: saline)?
Answer: 276 % of control

Question: What about the T/C (dose: 768.0 mg/kg/injection, schedule: Q01DX005 (ip), vehicle: saline) of the same molecule?
Answer: 86 % of control

Question: Which T/C [4] does the source give for `Nc1nc(N)c2cc(S(=O)(=O)c3cccc(C(F)(F)F)c3)ccc2n1` here?
Answer: 95 % of control

Question: What about the T/C [5] of the same molecule?
Answer: 111 % of control

Question: And the T/C [6]?
Answer: 120 % of control

Question: Which T/C [7] does the source give for `O=[N+]([O-])c1cc([N+](=O)[O-])c2ccccc2c1NS(=O)(=O)c1ccc(Br)cc1` here?
Answer: 112 % of control

Question: And the T/C [4]?
Answer: 113 % of control

Question: `[NH-]C(CCC(N)=O)C(=O)O.[NH-]C(CCC(N)=O)C(=O)O.[Pt+2]` (centres undefined) was tested. Which T/C (dose: 12.5 mg/kg/injection, schedule: Q01DX009 (ip), vehicle: distilled water + Tween-80) did it give?
Answer: 100 % of control

Question: What about the T/C (dose: 25.0 mg/kg/injection, schedule: Q01DX009 (ip), vehicle: distilled water + Tween-80) of the same molecule?
Answer: 100 % of control

Question: What about the T/C (dose: 50.0 mg/kg/injection, schedule: Q01DX009 (ip), vehicle: distilled water + Tween-80) of the same molecule?
Answer: 100 % of control

Question: What about the T/C (dose: 100.0 mg/kg/injection, schedule: Q01DX009 (ip), vehicle: distilled water + Tween-80) of the same molecule?
Answer: 113 % of control

Question: How did the T/C (dose: 50.0 mg/kg/injection, schedule: Q01DX009 (ip), vehicle: Klucel (hydroxypropylcellulose) (HPC)) turn out when `O=S1(=O)CCN(C2CCCCCCC2)CC1` was run?
Answer: 115 % of control

Question: What about the T/C (dose: 100.0 mg/kg/injection, schedule: Q01DX009 (ip), vehicle: Klucel (hydroxypropylcellulose) (HPC)) of the same molecule?
Answer: 116 % of control

Question: And the T/C (dose: 200.0 mg/kg/injection, schedule: Q01DX009 (ip), vehicle: Klucel (hydroxypropylcellulose) (HPC))?
Answer: 104 % of control

Question: Which T/C (dose: 50.0 mg/kg/injection, schedule: Q01DX009 (ip), vehicle: saline) does the source give for `O=C1N(c2ccccc2)CCC12CCNCC2` here?
Answer: 94 % of control

Question: And the T/C (dose: 100.0 mg/kg/injection, schedule: Q01DX009 (ip), vehicle: saline)?
Answer: 94 % of control

Question: Which T/C [7] does the source give for `c1ccc(CCNCc2ccccc2)cc1` here?
Answer: 100 % of control

Question: What about the T/C [4] of the same molecule?
Answer: 100 % of control

Question: And the T/C [5]?
Answer: 100 % of control

Question: Which results are given for `CCCCCCCCCCC(=O)CCCCCC`?
Answer: T/C (dose: 100.0 mg/kg/injection, schedule: Q04DX003 (ip), vehicle: other): 104 % of control; T/C (dose: 200.0 mg/kg/injection, schedule: Q04DX003 (ip), vehicle: other): 122 % of control; T/C (dose: 400.0 mg/kg/injection, schedule: Q04DX003 (ip), vehicle: other): 109 % of control

Question: `CNC(=O)OCc1c(COC(=O)NC)c(-c2ccc(F)cc2)n2c1CCC2` was tested. Which T/C (dose: 1.56 mg/kg/injection, schedule: Q01DX009 (ip), vehicle: Klucel (hydroxypropylcellulose) (HPC)) did it give?
Answer: 122 % of control

Question: Which T/C (dose: 120.0 mg/kg/injection, schedule: Q01DX009 (ip), vehicle: saline with Tween-80) does the source give for `COc1ccc(C2CCc3cc(OC)c(OC)cc3C2NC=O)cc1OC` (centres undefined) here?
Answer: 87 % of control

Question: And the T/C (dose: 240.0 mg/kg/injection, schedule: Q01DX009 (ip), vehicle: saline with Tween-80)?
Answer: 95 % of control

Question: `O=S(=O)(O)CCN1CCN(CCO)CC1` was tested. Which T/C (dose: 100.0 mg/kg/injection, schedule: Q04DX003 (ip), vehicle: saline) did it give?
Answer: 91 % of control

Question: And the T/C (dose: 200.0 mg/kg/injection, schedule: Q04DX003 (ip), vehicle: saline)?
Answer: 108 % of control

Question: And the T/C (dose: 400.0 mg/kg/injection, schedule: Q04DX003 (ip), vehicle: saline)?
Answer: 95 % of control
